Results: ChEMBL document CHEMBL1201861, “Genomics of Drug Sensitity in Cancer screening data, Wellcome Trust Sanger Institute”

Key:
NCI-H650 = assay: cells; assay type: functional, cell-based; details: Homo sapiens;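 also: growth inhibition of NCI-H650 cells, read out by a viability assay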
Description: SANGER: Inhibition of human NCI-H650 cell growth in a cell viability assay.

MIA PaCa-2 = assay: cells; assay type: functional, cell-based; details: Homo sapiens;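 also: growth inhibition of MIA PaCa-2 cells, read out with a cell viability assay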
Description: SANGER: Inhibition of human MIA-PaCa-2 cell growth in a cell viability assay.

SW780 = assay: cells; assay type: functional, cell-based; details: Homo sapiens;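 also: growth inhibition of the cells, read out with a cell viability assay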
Description: SANGER: Inhibition of human SW780 cell growth in a cell viability assay.

NCI-H1963 = assay: cells; assay type: functional, cell-based; details: Homo sapiens;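 also: cell growth inhibition of the human line, determined with a cell viability assay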
Description: SANGER: Inhibition of human NCI-H1963 cell growth in a cell viability assay.

IGR-1 = assay: cells; assay type: functional, cell-based; details: Homo sapiens;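 also: growth inhibition of human IGR-1 cells, read out with a cell viability assay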
Description: SANGER: Inhibition of human IGR-1 cell growth in a cell viability assay.

SK-MEL3 = assay: cells; assay type: functional, cell-based, SK-MEL-3; details: Homo sapiens;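 also: growth inhibition of human SK-MEL-3 cells, read out with a cell viability assay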
Description: SANGER: Inhibition of human SK-MEL-3 cell growth in a cell viability assay.

NCI-H64 = assay: cells; assay type: functional, cell-based; details: Homo sapiens;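 also: growth inhibition of NCI-H64 cells, read out with a cell viability assay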
Description: SANGER: Inhibition of human NCI-H64 cell growth in a cell viability assay.

HuP-T4 = assay: cells; assay type: functional, cell-based; details: Homo sapiens;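 also: cell viability assay measuring how much HuP-T4 cell growth is inhibited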
Description: SANGER: Inhibition of human HuP-T4 cell growth in a cell viability assay.

KYSE-270 = assay: cells; assay type: functional, cell-based; details: Homo sapiens;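 also: cell growth inhibition measured with a viability assay in the human KYSE-270 line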
Description: SANGER: Inhibition of human KYSE-270 cell growth in a cell viability assay.

K052 = assay: cells; assay type: functional, cell-based; details: Homo sapiens;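 also: Read-out from a cell viability assay, IC50 reflecting suppression of K052 cell growth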
Description: SANGER: Inhibition of human K052 cell growth in a cell viability assay.

SW-620 = assay: cells; assay type: functional, cell-based; details: Homo sapiens;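 also: growth inhibition of human SW-620 cells, measured by a cell viability assay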
Description: SANGER: Inhibition of human SW620 cell growth in a cell viability assay.

ABC-1 = assay: cells; assay type: functional, cell-based; details: Homo sapiens;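 also: growth inhibition of human ABC-1 cells, read out by a cell viability assay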
Description: SANGER: Inhibition of human ABC-1 cell growth in a cell viability assay.

CAL-62 = assay: cells; assay type: functional, cell-based; details: Homo sapiens;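 also: growth inhibition of CAL-62 cells, read out with a cell viability assay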
Description: SANGER: Inhibition of human CAL-62 cell growth in a cell viability assay.

CAMA-1 = assay: cells; assay type: functional, cell-based; details: Homo sapiens;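 also: growth inhibition of CAMA-1 cells, read out with a cell viability assay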
Description: SANGER: Inhibition of human CAMA-1 cell growth in a cell viability assay.

BXPC-3 = assay: cells; assay type: functional, cell-based; details: Homo sapiens;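 also: growth inhibition of human BxPC-3 cells, read out by a cell viability assay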
Description: SANGER: Inhibition of human BxPC-3 cell growth in a cell viability assay.

SK-MEL-28 = assay: cells; assay type: functional, cell-based; details: Homo sapiens;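 also: growth inhibition of human SK-MEL-28 cells, read out with a cell viability assay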
Description: SANGER: Inhibition of human SK-MEL-28 cell growth in a cell viability assay.

NCI-H1882 = assay: cells; assay type: functional, cell-based; details: Homo sapiens;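 also: growth inhibition of the cell line, determined with a viability assay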
Description: SANGER: Inhibition of human NCI-H1882 cell growth in a cell viability assay.

BFTC-909 = assay: cells; assay type: functional, cell-based; details: Homo sapiens
Description: SANGER: Inhibition of human BFTC-909 cell growth in a cell viability assay.

SU-DHL-1 = assay: SANGER: Inhibition of human SU-DHL-1 cell growth in a cell viability assay.; assay type: functional, cell-based
A204 = assay: cells; assay type: functional, cell-based; details: Homo sapiens;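 also: growth inhibition of human A204 cells, read out with a cell viability assay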
Description: SANGER: Inhibition of human A204 cell growth in a cell viability assay.

KYSE-450 = assay: cells; assay type: functional, cell-based; details: Homo sapiens;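 also: cell growth inhibition measured by a viability assay in human KYSE-450 cells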
Description: SANGER: Inhibition of human KYSE-450 cell growth in a cell viability assay.

MKN-45 = assay: cells; assay type: functional, cell-based; details: Homo sapiens;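 also: growth inhibition of human MKN-45 cells, measured with a cell viability assay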
Description: SANGER: Inhibition of human MKN45 cell growth in a cell viability assay.

HSC-2 = assay: cells; assay type: functional, cell-based; details: Homo sapiens;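 also: growth inhibition of human HSC-2 cells, read out by a cell viability assay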
Description: SANGER: Inhibition of human HSC-2 cell growth in a cell viability assay.

MDA-MB-415 = assay: cells; assay type: functional, cell-based; details: Homo sapiens
Daoy = assay: cells; assay type: functional, cell-based; details: Homo sapiens;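 also: daoy cell growth inhibition, read out as cell viability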
Description: SANGER: Inhibition of human Daoy cell growth in a cell viability assay.

UACC-62 = assay: cells; assay type: functional, cell-based; details: Homo sapiens;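 also: growth inhibition of human UACC-62 cells, read out by a cell viability assay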
Description: SANGER: Inhibition of human UACC-62 cell growth in a cell viability assay.

RCM-1 = assay: cells; assay type: functional, cell-based; details: Homo sapiens;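 also: growth inhibition of the RCM-1 line, determined with a cell viability readout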
Description: SANGER: Inhibition of human RCM-1 cell growth in a cell viability assay.

HCC2157 = assay: cells; assay type: functional, cell-based; details: Homo sapiens;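 also: growth inhibition of the cancer cell line, read out as cell viability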
Description: SANGER: Inhibition of human HCC2157 cell growth in a cell viability assay.

EGI-1 = assay: cells; assay type: functional, cell-based; details: Homo sapiens;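 also: cell viability readout used to gauge growth inhibition of EGI-1 cells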
Description: SANGER: Inhibition of human EGI-1 cell growth in a cell viability assay.

T47D = assay: cells; assay type: functional, cell-based; details: Homo sapiens;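 also: growth inhibition of human T47D cells, measured with a cell viability assay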
Description: SANGER: Inhibition of human T47D cell growth in a cell viability assay.

IMR-5 = assay: cells; assay type: functional, cell-based; details: Homo sapiens;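 also: growth inhibition of human IMR-5 cells, read out with a cell viability assay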
Description: SANGER: Inhibition of human IMR-5 cell growth in a cell viability assay.

CHP-212 = assay: cells; assay type: functional, cell-based; details: Homo sapiens
Description: SANGER: Inhibition of human CHP-212 cell growth in a cell viability assay.

MEL-JUSO = assay: cells; assay type: functional, cell-based; details: Homo sapiens;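 also: growth inhibition of human MEL-JUSO cells, read out with a cell viability assay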
Description: SANGER: Inhibition of human MEL-JUSO cell growth in a cell viability assay.

LU-165 = assay: cells; assay type: functional, cell-based; details: Homo sapiens
Description: SANGER: Inhibition of human LU-165 cell growth in a cell viability assay.

HSC-4 = assay: cells; assay type: functional, cell-based; details: Homo sapiens;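 also: growth inhibition of human HSC-4 cells, read out with a cell viability assay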
Description: SANGER: Inhibition of human HSC-4 cell growth in a cell viability assay.

AN3-CA = assay: cells; assay type: functional, cell-based; details: Homo sapiens;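 also: growth inhibition of human AN3-CA cells measured by a cell viability assay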
Description: SANGER: Inhibition of human AN3-CA cell growth in a cell viability assay.

RPMI-7951 = assay: cells; assay type: functional, cell-based; details: Homo sapiens
Description: SANGER: Inhibition of human RPMI-7951 cell growth in a cell viability assay.

RL = assay: cells; assay type: functional, cell-based; details: Homo sapiens
Description: SANGER: Inhibition of human RL cell growth in a cell viability assay.

GMS-10 = assay: cells; assay type: functional, cell-based; details: Homo sapiens;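 also: growth inhibition of GMS-10 cells, read out as cell viability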
Description: SANGER: Inhibition of human GMS-10 cell growth in a cell viability assay.

OPM-2 = assay: cells; assay type: functional, cell-based; details: Homo sapiens;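 also: growth of OPM-2 cells measured with a viability assay, IC50 for suppression of proliferation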
Description: SANGER: Inhibition of human OPM-2 cell growth in a cell viability assay.

CHP-126 = assay: cells; assay type: functional, cell-based; details: Homo sapiens
Description: SANGER: Inhibition of human CHP-126 cell growth in a cell viability assay.

CESS = assay: SANGER: Inhibition of human CESS cell growth in a cell viability assay.; assay type: functional, cell-based
HCC1395 = assay: cells; assay type: functional, cell-based; details: Homo sapiens;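 also: growth inhibition of HCC1395 cells, read out by a cell viability assay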
Description: SANGER: Inhibition of human HCC1395 cell growth in a cell viability assay.

ASPC1 = assay: cells; assay type: functional, cell-based; details: Homo sapiens;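 also: growth inhibition of AsPC-1 cells, read out with a cell viability assay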
Description: SANGER: Inhibition of human AsPC-1 cell growth in a cell viability assay.

C32 = assay: cells; assay type: functional, cell-based; details: Homo sapiens;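 also: cell viability assay, with IC50 reflecting inhibition of C32 cell growth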
Description: SANGER: Inhibition of human C32 cell growth in a cell viability assay.

G-361 = assay: cells; assay type: functional, cell-based; details: Homo sapiens
SK-LU-1 = assay: cells; assay type: functional, cell-based; details: Homo sapiens;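 also: cell viability assay measuring growth inhibition of human SK-LU-1 cells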
Description: SANGER: Inhibition of human SK-LU-1 cell growth in a cell viability assay.

ARH-77 = assay: cells; assay type: functional, cell-based; details: Homo sapiens;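 also: growth inhibition of ARH-77 cells, read out by a cell viability assay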
Description: SANGER: Inhibition of human ARH-77 cell growth in a cell viability assay.

TYK-nu = assay: cells; assay type: functional, cell-based; details: Homo sapiens;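 also: growth inhibition of human TYK-nu cells, read out by a cell viability assay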
Description: SANGER: Inhibition of human TYK-nu cell growth in a cell viability assay.

HCT-15 = assay: cells; assay type: functional, cell-based; details: Homo sapiens;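 also: cell viability readout, IC50 reflecting suppression of HCT-15 cell growth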
Description: SANGER: Inhibition of human HCT-15 cell growth in a cell viability assay.

HCC1954 = assay: cells; assay type: functional, cell-based; details: Homo sapiens;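 also: growth inhibition of human HCC1954 cells, read out with a cell viability assay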
Description: SANGER: Inhibition of human HCC1954 cell growth in a cell viability assay.

SNU-C1 = assay: cells; assay type: functional, cell-based; details: Homo sapiens;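 also: growth inhibition of SNU-C1 human cells, read out by a cell viability assay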
Description: SANGER: Inhibition of human SNU-C1 cell growth in a cell viability assay.

C3A = assay: cells; assay type: functional, cell-based; details: Homo sapiens;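 also: growth inhibition of C3A human cells, quantified with a cell viability readout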
Description: SANGER: Inhibition of human C3A cell growth in a cell viability assay.

U2OS = assay: cells; assay type: functional, cell-based, U-2-OS; details: Homo sapiens;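 also: growth inhibition of human U-2-OS cells, determined with a cell viability assay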
Description: SANGER: Inhibition of human U-2-OS cell growth in a cell viability assay.

FaDu = assay: cells; assay type: functional, cell-based; details: Homo sapiens;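 also: cell viability readout of growth inhibition in FaDu cells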
Description: SANGER: Inhibition of human FADU cell growth in a cell viability assay.

Calu-3 = assay: cells; assay type: functional, cell-based; details: Homo sapiens;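 also: growth inhibition of human Calu-3 cells, determined with a cell viability assay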
Description: SANGER: Inhibition of human Calu-3 cell growth in a cell viability assay.

SCC-3 = assay: cells; assay type: functional, cell-based; details: Homo sapiens;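 also: cell viability assay measuring inhibition of SCC-3 cell growth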
Description: SANGER: Inhibition of human SCC-3 cell growth in a cell viability assay.

Panc1005 = assay: cells; assay type: functional, cell-based; details: Homo sapiens;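 also: growth inhibition of human PANC-10-05 cells, measured by a cell viability assay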
Description: SANGER: Inhibition of human PANC-10-05 cell growth in a cell viability assay.

HT1197 = assay: cells; assay type: functional, cell-based, HT-1197; details: Homo sapiens
Description: SANGER: Inhibition of human HT-1197 cell growth in a cell viability assay.

A253 cell line = assay: cells; assay type: functional, cell-based; details: Homo sapiens;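 also: growth inhibition of A253 cells, read out with a cell viability assay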
Description: SANGER: Inhibition of human A253 cell growth in a cell viability assay.

CAPAN-1 = assay: cells; assay type: functional, cell-based; details: Homo sapiens;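 also: growth suppression of CAPAN-1 cells, read out by a cell viability assay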
Description: SANGER: Inhibition of human CAPAN-1 cell growth in a cell viability assay.

NCI-H2141 = assay: cells; assay type: functional, cell-based; details: Homo sapiens
Description: SANGER: Inhibition of human NCI-H2141 cell growth in a cell viability assay.

N#C/C(=C1/Nc2ccccc2S1)c1ccnc(NCCc2cccnc2)n1
IC50 (NCI-H650): > 8 µM | IC50 (MIA PaCa-2): 0.976 µM | IC50 (SW780): > 8 µM | IC50 (NCI-H1963): > 8 µM | IC50 (IGR-1): 4.68 µM | IC50 (SK-MEL3): > 8 µM | IC50 (NCI-H64): > 8 µM | IC50 (HuP-T4): 4.44 µM | IC50 (KYSE-270): 5.97 µM | IC50 (K052): > 8 µM | IC50 (SW-620): > 8 µM | IC50 (ABC-1): > 8 µM | IC50 (CAL-62): 5.89 µM | IC50 (CAMA-1): > 8 µM | IC50 (BXPC-3): 1.86 µM | IC50 (SK-MEL-28): > 8 µM | IC50 (NCI-H1882): > 8 µM | IC50 (BFTC-909): > 8 µM | IC50 (SU-DHL-1): > 8 µM | IC50 (A204): 7.34 µM | IC50 (KYSE-450): 1.14 µM | IC50 (MKN-45): > 8 µM | IC50 (HSC-2): > 8 µM | IC50 (MDA-MB-415): > 8 µM | IC50 (Daoy): > 8 µM | IC50 (UACC-62): > 8 µM | IC50 (RCM-1): > 8 µM | IC50 (HCC2157): > 8 µM | IC50 (EGI-1): > 8 µM | IC50 (T47D): > 8 µM | IC50 (IMR-5): > 8 µM | IC50 (CHP-212): > 8 µM | IC50 (MEL-JUSO): 3.65 µM | IC50 (LU-165): > 8 µM | IC50 (HSC-4): > 8 µM | IC50 (AN3-CA): 2.59 µM | IC50 (RPMI-7951): > 8 µM | IC50 (RL): > 8 µM | IC50 (GMS-10): > 8 µM | IC50 (OPM-2): > 8 µM | IC50 (CHP-126): > 8 µM | IC50 (CESS): > 8 µM | IC50 (HCC1395): > 8 µM | IC50 (ASPC1): > 8 µM | IC50 (C32): > 8 µM | IC50 (G-361): > 8 µM | IC50 (SK-LU-1): 4.64 µM | IC50 (ARH-77): > 8 µM | IC50 (TYK-nu): 1.75 µM | IC50 (HCT-15): > 8 µM | IC50 (HCC1954): > 8 µM | IC50 (SNU-C1): > 8 µM | IC50 (C3A): 2.81 µM | IC50 (U2OS): > 8 µM | IC50 (FaDu): > 8 µM | IC50 (Calu-3): > 8 µM | IC50 (SCC-3): > 8 µM | IC50 (Panc1005): > 8 µM | IC50 (HT1197): > 8 µM | IC50 (A253 cell line): > 8 µM | IC50 (CAPAN-1): > 8 µM | IC50 (NCI-H2141): > 8 µM

CC(C)=CC[C@@H](O)C1=CC(=O)c2c(O)ccc(O)c2C1=O [SHIKONIN]
IC50 (NCI-H650): 0.665 µM | IC50 (MIA PaCa-2): 0.276 µM | IC50 (SW780): 0.406 µM | IC50 (NCI-H1963): 0.1 µM | IC50 (IGR-1): 0.154 µM | IC50 (SK-MEL3): 2.64 µM | IC50 (NCI-H64): 0.547 µM | IC50 (HuP-T4): 1.36 µM | IC50 (KYSE-270): 0.217 µM | IC50 (K052): 1.1 µM | IC50 (SW-620): 0.359 µM | IC50 (ABC-1): 0.707 µM | IC50 (CAL-62): 1.28 µM | IC50 (CAMA-1): 1.52 µM | IC50 (BXPC-3): 0.334 µM | IC50 (SK-MEL-28): > 16 µM | IC50 (NCI-H1882): 0.576 µM | IC50 (BFTC-909): 3.63 µM | IC50 (SU-DHL-1): 0.499 µM | IC50 (A204): 0.127 µM | IC50 (KYSE-450): 0.138 µM | IC50 (MKN-45): 0.608 µM | IC50 (HSC-2): 0.223 µM | IC50 (MDA-MB-415): 2.28 µM | IC50 (Daoy): 0.159 µM | IC50 (UACC-62): 1.23 µM | IC50 (RCM-1): 2 µM | IC50 (HCC2157): 0.338 µM | IC50 (EGI-1): 2.51 µM | IC50 (T47D): 0.223 µM | IC50 (IMR-5): 0.589 µM | IC50 (CHP-212): 1.1 µM | IC50 (MEL-JUSO): 0.54 µM | IC50 (LU-165): 0.634 µM | IC50 (HSC-4): 2.12 µM | IC50 (AN3-CA): 0.0796 µM | IC50 (RPMI-7951): 0.156 µM | IC50 (RL): > 16 µM | IC50 (GMS-10): 11.5 µM | IC50 (OPM-2): 0.343 µM | IC50 (CHP-126): 0.695 µM | IC50 (CESS): 0.776 µM | IC50 (HCC1395): 15.7 µM | IC50 (ASPC1): 0.619 µM | IC50 (C32): 2.68 µM | IC50 (G-361): 0.473 µM | IC50 (SK-LU-1): 0.75 µM | IC50 (ARH-77): 0.873 µM | IC50 (TYK-nu): 1.15 µM | IC50 (HCT-15): 0.268 µM | IC50 (HCC1954): 0.902 µM | IC50 (SNU-C1): > 16 µM | IC50 (C3A): 0.657 µM | IC50 (U2OS): > 16 µM | IC50 (FaDu): 1.77 µM | IC50 (Calu-3): 1.11 µM | IC50 (SCC-3): 1 µM | IC50 (Panc1005): 0.416 µM | IC50 (HT1197): 0.276 µM | IC50 (A253 cell line): < 0.0625 µM | IC50 (CAPAN-1): 0.759 µM | IC50 (NCI-H2141): 1.71 µM
